Data as given in patent US20240140895A1, “NOVEL AROMATIC MOLECULES” (XENIOPRO GmbH, priority 2018, published 2024).

Tests used:
Assay type in all cases: cell-based
[1] = tested on: HL-60 cells (human acute myeloid leukemia cells); assay: Proliferation assay (alamarBlue) with HL-60 cells
Text: (§1) The antiproliferative activities of compounds falling under formula (Ia), (Tb) and (Ic), respectively, were investigated on cells or cell lines originating from a disorder of the haematopoietic system, including the myeloid cell compartment and the lymphoid cell compartment (T-cells and B-cells), the neuroendocrine system, the cervix, the breast, the ovaries, the lung, the gastrointestinal tract, and the mucosal epithelium, as well as from the skin epithelium and from the muscle. To this end, HL-60 cells, NB-4 cells, HH cells, RPMI-8402 cells, TANOUE cells, TT cells, HeLa cells, MDA-MB-231 cells, FU-OV-1 cells, LOU-NH91 cells, 23132/87 cells, CAL-27 cells, BHY cells, SCC-25 cells, A-431 cells, human primary epidermal keratinocytes (HPEK), and C2C12 cells were seeded into 96-well plates suitable for fluorescence assays (CORNING #3598) at following initial cell numbers: 1000 cells per well for HL-60; 1000 cells per well for NB-4; 5000 cells per well for HH; 5000 cells per well for RPMI-8402; 1500 cells per well for TANOUE; 9000 cells per well for TT; 2000 cells per well for HeLa; 3000 cells per well for MDA-MB-231; 3000 cells per well for FU-OV-1; 4000 cells per well for LOU-NH91; 2000 cells per well for 23132/87; 2000 cells per well for CAL-27; 1500 cells per well for BHY; 1500 cells per well for SCC-25; 700 cells per well for A-431; 1000 cells per well for HPEK; 500 cells per well for C2-C12. The cells were treated with compounds at indicated final concentrations (diluted from the 1000× stock-solutions in DMSO to a final DMSO concentration of 0.1% v/v in H2O (Water For Injection, WFI, Fisherscientific #10378939)) or with the empty carrier DMSO at 0.1% v/v as control for 5 days. At day 5 after starting the treatments the cells were subjected to the alamarBlue® Proliferation Assay (Bio-Rad Serotec GmbH, BUF012B) according to the protocol of the manufacturer. The readout was taken with a multi-well plate-reader in the fluorescence mode with applying a filter for excitation at 560 nm (band width 10 nm) and for emission at 590 nm (band width 10 nm). Control treatments for growth inhibition with commercial compounds such as Methotrexate (MTREX) and Resveratrol (RES) were included on every plate. Some of the test compounds of the present invention were obtained and applied as their salts. According cases are indicated in the column “Specification” in Table 30 to Table 62 and by their sum formula in Table 63.
(§2) The assays were performed in duplicate or more replicates of independent single experiments each containing a six-fold replicate for every condition. For every individual plate, the measured fluorescence intensity values of the conditions with compound treatment were normalized against the corresponding equally weighted arithmetic mean of the fluorescence intensity values of the six DMSO treated control wells in order to obtain the relative values to a baseline level of 1.0.
(§3) Two independent outlier analyses were performed according to the methods by Peirce and Chauvenet (Ross, Journal of Engineering Technology 2003, 1-12). Outliers confirmed by at least one of the methods were excluded from the calculations but not more than one value out of six per compound within a single experiment. The weighted arithmetic mean (here abbreviated as AVEw) for each compound was calculated from the normalized values over all independent replicates of the single experiments comprising the six replicates each. The corresponding standard deviation for the weighted arithmetic mean was calculated according to the method described by Bronstein et al. (Bronstein, Semendjajew, Musiol, Muhlig, Taschenbuch der Mathematik, 5th edition 2001 (German), publisher: Verlag Harri Deutsch, Frankfurt am Main and Thun) and was combined with the Gauβ′ error propagation associated with the performed calculation for the normalization. The resulting standard deviation is herein referred to as “combined standard deviation”. […]

[2] = tested on: NB-4 cells (human acute promyelocytic leukemia cells); assay: Proliferation assay (alamarBlue) with NB-4 cells
Text: as §1, §2, §3

[3] = tested on: HH cells (human cutaneous T-cell lymphoma cells); assay: Proliferation assay (alamarBlue) with HH cells; conditions: Table 34, compound at 20 μM, read-out: Activity Range (AVEw, weighted arithmetic mean of normalized fluorescence intensity, DMSO = 1.0)
Text: as §1, §2, §3

[4] = tested on: RPMI-8402 cells (human T cell acute lymphoblastic leukemia cells); assay: Proliferation assay (alamarBlue) with RPMI-8402 cells
Text: as §1, §2, §3

[5] = tested on: TANOUE cells (human B cell leukemia cells); assay: Proliferation assay (alamarBlue) with TANOUE cells
Text: as §1, §2, §3

[6] = tested on: MDA-MB-231 cells (human breast carcinoma cells); assay: Proliferation assay (alamarBlue) with MDA-MB-231 cells
Text: as §1, §2, §3

[7] = tested on: FU-OV-1 cells (human ovarian carcinoma cells); assay: Proliferation assay (alamarBlue) with FU-OV-1 cells
Text: (§4) The antiproliferative activities of compounds falling under formula (Ia), (Tb) and (Ic), respectively, were investigated on cells or cell lines originating from a disorder of the haematopoietic system, including the myeloid cell compartment and the lymphoid cell compartment (T-cells and B-cells), the neuroendocrine system, the cervix, the breast, the ovaries, the lung, the gastrointestinal tract, and the mucosal epithelium, as well as from the skin epithelium and from the muscle. To this end, HL-60 cells, NB-4 cells, HH cells, RPMI-8402 cells, TANOUE cells, TT cells, HeLa cells, MDA-MB-231 cells, FU-OV-1 cells, LOU-NH91 cells, 23132/87 cells, CAL-27 cells, BHY cells, SCC-25 cells, A-431 cells, human primary epidermal keratinocytes (HPEK), and C2C12 cells were seeded into 96-well plates suitable for fluorescence assays (CORNING #3598) at following initial cell numbers: 1000 cells per well for HL-60; 1000 cells per well for NB-4; 5000 cells per well for HH; 5000 cells per well for RPMI-8402; 1500 cells per well for TANOUE; 9000 cells per well for TT; 2000 cells per well for HeLa; 3000 cells per well for MDA-MB-231; 3000 cells per well for FU-OV-1; 4000 cells per well for LOU-NH91; 2000 cells per well for 23132/87; 2000 cells per well for CAL-27; 1500 cells per well for BHY; 1500 cells per well for SCC-25; 700 cells per well for A-431; 1000 cells per well for HPEK; 500 cells per well for C2-C12. […] The readout was taken with a multi-well plate-reader in the fluorescence mode with applying a filter for excitation at 560 nm (band width 10 nm) and for emission at 590 nm (band width 10 nm). […]
(§5) The assays were performed in duplicate or more replicates of independent single experiments each containing a six-fold replicate for every condition. For every individual plate, the measured fluorescence intensity values of the conditions with compound treatment were normalized against the corresponding equally weighted arithmetic mean of the fluorescence intensity values of the six DMSO treated control wells in order to obtain the relative values to a baseline level of 1.0. […]

[8] = tested on: LOU-NH91 cells (human lung squamous cell carcinoma cells); assay: Proliferation assay (alamarBlue) with LOU-NH91 cells
Text: as §4, §5

[9] = tested on: 23132/87 cells (human gastric adenocarcinoma cells); assay: Proliferation assay (alamarBlue) with 23132/87 cells; conditions: read-out: Activity Range: weighted arithmetic mean (AVEw) of normalized fluorescence intensity relative to DMSO basis level 1.0
Text: as §1, §2, §3

[10] = tested on: CAL-27 cells (human tongue squamous cell carcinoma cells); assay: Proliferation assay (alamarBlue) with CAL-27 cells; conditions: read-out: Activity Range: weighted arithmetic mean (AVEw) of normalized fluorescence intensity relative to DMSO basis level 1.0
Text: as §1, §2, §3

[11] = tested on: SCC-25 cells (human tongue squamous cell carcinoma cells); assay: Proliferation assay (alamarBlue) with SCC-25 cells
Text: as §1, §2, §3

[12] = tested on: A-431 cells (human epidermoid squamous cell carcinoma cells); assay: Proliferation assay (alamarBlue) with A-431 cells
Text: as §1, §2, §3

[13] = tested on: C2C12 cells (murine myoblast cells); assay: Proliferation assay (alamarBlue) with C2C12 cells; conditions: Mus musculus, compound at 20 μM, read-out: Activity Range: weighted arithmetic mean (AVEw) of normalized fluorescence intensity, relative to DMSO basis level 1.0
Text: as §1, §2, §3

[14] = tested on: TT cells (human medullary thyroid carcinoma cells); assay: Proliferation assay (alamarBlue) with TT cells
Text: as §4, §5

[15] = Homo sapiens, read-out: Activity Range: weighted arithmetic mean (AVEw) of normalized fluorescence intensity relative to DMSO basis level 1.0

Oc1ccc(C=Cc2cc(O)cc(O)c2)cc1 [RES, resveratrol, reference compound]
activity at 20 µM ([1]; Homo sapiens, Table 30, compound at 20 μM, read-out: Activity Range (AVEw, weighted arithmetic mean of normalized fluorescence intensity, DMSO = 1.0)): 40 ± 10% | Activity Range (AVEw, weighted arithmetic mean of normalized fluorescence intensity, DMSO = 1.0) ([1]; Table 31, compound at 20 μM): 0.4 ± 0.1 | activity at 20 µM ([2]; Homo sapiens, Table 32, compound at 20 μM, read-out: Activity Range (AVEw, weighted arithmetic mean of normalized fluorescence intensity, DMSO = 1.0)): 10% | Activity Range (AVEw, weighted arithmetic mean of normalized fluorescence intensity, DMSO = 1.0) ([2]; Table 33, compound at 20 μM): 0.1 ± 0.0 | activity at 20 µM [3]: 60 ± 10% | Activity Range: weighted arithmetic mean (AVEw) of normalized fluorescence intensity relative to DMSO basis level 1.0 ([4]; 20 μM): 0.6 ± 0.0 | activity at 20 µM [4, 15]: 60% | Activity Range: weighted arithmetic mean (AVEw) of normalized fluorescence intensity relative to DMSO basis level 1.0 ([5]; 20 μM): 0.1 ± 0.0 | activity at 20 µM ([5]; Homo sapiens, B-cell, read-out: Activity Range: weighted arithmetic mean (AVEw) of normalized fluorescence intensity relative to DMSO basis level 1.0): 10% | Activity Range: weighted arithmetic mean (AVEw) of normalized fluorescence intensity relative to DMSO basis level 1.0 ([6]; 20 μM): 0.6 ± 0.0 | activity at 20 µM [6, 15]: 60% | Activity Range: weighted arithmetic mean (AVEw) of normalized fluorescence intensity relative to DMSO basis level 1.0 ([7]; 20 μM): 0.7 ± 0.0 | Activity Range: weighted arithmetic mean (AVEw) of normalized fluorescence intensity relative to DMSO basis level 1.0 ([7]; control at 40 μM): 0.4 ± 0.0 | Activity Range: weighted arithmetic mean (AVEw) of normalized fluorescence intensity relative to DMSO basis level 1.0 ([8]; 20 μM): 0.9 ± 0.1 | Activity Range: weighted arithmetic mean (AVEw) of normalized fluorescence intensity relative to DMSO basis level 1.0 ([8]; control at 40 μM): 0.7 ± 0.0 | activity at 20 µM [9]: 50 ± 10% | activity at 20 µM [10]: 80 ± 10% | Activity Range: weighted arithmetic mean (AVEw) of normalized fluorescence intensity relative to DMSO basis level 1.0 ([11]; 20 μM): 0.4 ± 0.1 | activity at 20 µM [11, 15]: 40 ± 10% | activity at 20 µM ([12]; Homo sapiens, 20 μM, read-out: Activity Range: weighted arithmetic mean (AVEw) of normalized fluorescence intensity relative to DMSO basis level 1.0): 60% | Activity Range: weighted arithmetic mean (AVEw) of normalized fluorescence intensity relative to DMSO basis level 1.0 ([12]; compound at 20 μM): 0.6 ± 0.0 | Activity Range: weighted arithmetic mean (AVEw) of normalized fluorescence intensity relative to DMSO basis level 1.0 ([12]; control at 40 μM): 0.2 ± 0.0 | activity at 20 µM [13]: 80% | Activity Range: weighted arithmetic mean (AVEw) of normalized fluorescence intensity relative to DMSO basis level 1.0 ([14]; compound at 20 μM): 0.9 ± 0.0 | Activity Range: weighted arithmetic mean (AVEw) of normalized fluorescence intensity relative to DMSO basis level 1.0 ([14]; control at 40 μM): 0.7 ± 0.0
